According to US10501453B2, “Benzothiazole or benzoxazole compounds as SUMO activators” (Icahn School of Medicine at Mount Sinai, priority 2012, dated 2019):

What was measured:
SERCA2a = test: Endogenous SERCA2a SUMOylation profiling and protein expression in ARVMs; type: cell-based, rat
Method: Calcium-tolerant adult rat ventricular myocytes (ARVMs) were obtained from hearts of male Sprague-Dawley rats (250 to 300 g). The heart was excised and perfused with a standard enzymatic technique. ARVMs were plated on multi-chambered plates or culture dishes, pre-coated with laminin 2 μg/cm^2, at a density of 10^5 cells/cm^2 in DMEM without L-glutamine supplemented with 10 mmol/l HEPES, 3.7 mg/ml NaHCO3, 1 mg/ml glucose, 0.11 mg/ml sodium pyruvate, 2 mg/ml bovine serum albumin, 2 mmol/1 L-camitine, 5 mmol/1 creatine, 5 mmol/1 taurine, 1% penicillin-streptomycin, and 1% gentamycin. Following isolation, cells were allowed to settle for 1 hour. Cultures were incubated at 37° C., in an atmosphere of 5% CO2-95% air. Fresh medium was added gently as medium was being drawn off until the cultures had been thoroughly washed. Only quiescent, rod-shape cardiac myocytes were selected for IonOptix experiments.
Equal amounts of protein from either small molecule treated or DMSO treated cells or immunoprecipitates were resolved by 7.5% SDS-PAGE and transferred to nitrocellulose membranes (Bio-Rad, catalog no. 162-0112). The membranes were blocked for 1 hour at room temperature with 5% non-fat milk (Cell Signaling Technology Inc., catalog no. 9999) in TBST (10 mM Tris-HCl, 150 mM NaCl, and 0.05% tween-20, pH 8.0). […]
The effects of the Example compound was examined on isolated rat cardiomyocytes shortening and relaxation parameters. […] Effects of Example 1 on mechanical properties of the ARVMs were assessed using a video-based edge detection system (IonOptix). The time constant of the increase of force during the stretch decreased (tau), percentage of peak shortening (PS), maximal rate of relaxation and contraction were analyzed at 24 hrs postincubation of the compounds in culture media (N=10 ARVMs). The mechanical data were analyzed with student's t-test (FIG. 2A, P<0.05 compared to the DMSO treated cells). SERCA2a SUMOylation profiling was analyzed in a same set of ARVMs (FIG. 2B, WCL, whole cell lysates; S-SERCA2a, SUMOylated SERCA2a). […]

SUMO E1 enzyme = molecular target: T1, SUMO E1 enzyme (Homo sapiens, UniProt Q9UBT2); test: Thioester formation between SUMO-1 and SUMO E1 enzyme (gel-based assay); type: biochemical
T1 sequence (Q9UBT2 1-640): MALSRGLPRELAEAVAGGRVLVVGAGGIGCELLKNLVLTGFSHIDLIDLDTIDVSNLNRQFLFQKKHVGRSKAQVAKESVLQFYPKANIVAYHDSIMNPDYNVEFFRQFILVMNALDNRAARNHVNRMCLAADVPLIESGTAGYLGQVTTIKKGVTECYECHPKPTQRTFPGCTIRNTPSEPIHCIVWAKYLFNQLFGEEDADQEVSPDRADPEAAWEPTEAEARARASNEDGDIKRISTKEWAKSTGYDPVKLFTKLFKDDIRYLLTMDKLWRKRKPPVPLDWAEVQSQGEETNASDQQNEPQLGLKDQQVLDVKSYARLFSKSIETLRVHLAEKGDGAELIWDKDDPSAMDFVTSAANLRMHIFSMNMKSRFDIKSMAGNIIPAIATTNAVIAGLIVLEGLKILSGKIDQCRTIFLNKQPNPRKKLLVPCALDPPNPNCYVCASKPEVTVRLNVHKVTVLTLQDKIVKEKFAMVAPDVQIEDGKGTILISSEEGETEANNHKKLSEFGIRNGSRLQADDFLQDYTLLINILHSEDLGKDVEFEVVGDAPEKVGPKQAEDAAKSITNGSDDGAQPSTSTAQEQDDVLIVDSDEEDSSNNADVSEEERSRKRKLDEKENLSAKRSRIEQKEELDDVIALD
T1 sequence (Q9UBE0 1-346): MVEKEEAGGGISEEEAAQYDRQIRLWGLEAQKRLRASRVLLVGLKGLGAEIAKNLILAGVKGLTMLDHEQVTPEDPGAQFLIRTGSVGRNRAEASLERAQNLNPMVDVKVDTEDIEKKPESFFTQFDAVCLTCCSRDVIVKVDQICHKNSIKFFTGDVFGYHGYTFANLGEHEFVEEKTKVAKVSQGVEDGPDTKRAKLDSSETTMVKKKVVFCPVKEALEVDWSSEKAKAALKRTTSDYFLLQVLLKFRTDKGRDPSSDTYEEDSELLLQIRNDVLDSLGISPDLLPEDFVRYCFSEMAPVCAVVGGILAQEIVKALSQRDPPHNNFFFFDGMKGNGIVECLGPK

SUMO E2 enzyme, UBC9 = test: Transfer of activated SUMO-1 from SUMO E1 to SUMO E2 enzyme UBC9 (gel-based assay); type: biochemical
sham-operated animals = test: Hemodynamics in sham-operated mice; type: in vivo, mouse
Method: Hemodynamics were measured to evaluate the acute effect of Example 1 infusion on the cardiac function of the mouse model of HF. In the first set of experiments, mice were exposed to pressure overload by thoracic aortic constriction (TAC) or sham operation and received either EXAMPLE 1 or vehicle. At two months post-TAC animals developed HF. […] In addition, the positive chronotropic effect of dobutamine was no longer observed in TAC mice (FIG. 9). Following cannulation of the carotid artery and external jugular vein, infusion of EXAMPLE 1 or vehicle was performed as described in Method section. Pressure and conductance catheters were introduced in the LV through the carotid artery. Pressure and volume measurements were made simultaneously and pressure volume curves were constructed as the vehicle or EXAMPLE 1 were infused.
Hemodynamic data were obtained in 1 mg of EXAMPLE 1-treated failing hearts at 30 min and 60 min after compound treatment. […] The improvement occurred within 30 minutes after treatment and maintained for 60 minutes after treatment. […] The effects of EXAMPLE 1 on various hemodynamic parameters are shown in FIG. 9b and Table S1. dP/dt max increased with increasing concentration of EXAMPLE 1 while Tau a parameter of relaxation decreased an indication of enhanced relaxation.

NCI-60 human tumor cell = NCI-60 human tumor cell screen; type: cell-based; details: NCI-60 set
Method: The NCI-60 human tumor cell screen used by the National Cancer Institute's Developmental Therapeutics Program was performed on Example 1. The NCI-60 set includes leukemia, lymphomas, and carcinomas of ovarian, renal, breast, prostate, colon, lung and CNS origin.

[1] = tested on: adult rat ventricular myocytes (ARVMs); test: Cell shortening/re-lengthening and calcium transient of ARVMs (IonOptix); type: cell-based

protein expression levels of E1, E2 enzymes, SERCA2a and SUMO-1 (SERCA2a; dose response): not changed | EC50 (SUMO E1 enzyme): 1850 ± 960 nM | EC50 (SUMO E2 enzyme, UBC9): 10.2 ± 0.28 µM
Compound: COc1ccc(-c2nnc(Nc3nc4c(OC)cccc4s3)o2)cc1 [Example 1, N-(4-methoxybenzo[d]thiazol-2-yl)-5-(4-methoxyphenyl)-1,3,4-oxadiazol-2-amine]
levels of SERCA2a SUMOylation with increasing amount of compound (SERCA2a; dose response): increased levels of SERCA2a SUMOylation | endogenous SERCA2a SUMOylation (SERCA2a; isolated rodent adult cardiomyocytes): significantly increased | hemodynamic parameters in sham-operated groups (sham-operated animals): No statistically significant changes | cancer cell growth and proliferation (NCI-60 human tumor cell): did not induce cancer cell growth and proliferation | Tau value (dose response) ([1]; 0.1 μM): 1.3 ± 0.0 ms | Tau value (dose response) ([1]; 1 μM): 1300 ± 100 ms | cell contractility (peak shortening), dose response ([1]; concentration dependent manner, versus DMSO): significantly increased cell contractility
